Measured values published in patent US20180188224A1, “METHOD FOR CONSTRUCTING A SENSORY SPACE” (CENTRE SCIENTIFIQUE ET TECHNIQUE DU BATIMENT (CSTB), priority 2015, published 2018).

Tests used:
[1] = tested on: four non-smoking volunteers (2 men and 2 women); test: Hedonic score, 11-point scale (0 very unpleasant to 10 very pleasant, 5 neutral); assay type: in vivo, human; details: concentration 4 (highest)
Description: (§1) In this test, four non-smoking volunteers (2 men and 2 women) were chosen from 12 people for their performance in taste recognition. Their mean age was 32 years, ranging from 24 to 40 years. […] These four people were trained for several months to recognize and detect the four basic tastes, and also regarding the procedures of sensory and physiological analysis.
(§2) The four basic tastes (sweet, salty, sour and bitter) were used. The solutions were prepared with citric acid for the sour taste, caffeine for the bitter taste, sodium chloride for the salty taste and sucrose for the sweet taste (all purchased from Sigma Aldrich, France) in Evian water. Evian water was also used as control and blank. Each taste was prepared with the four concentrations mentioned in table 1.
(§3) The amount of solution to be tested was standardized at 10 ml. In order to impregnate the whole of the oral cavity, the subjects kept the solution in their mouth for 5 s before swallowing it.
(§4) The sessions were individual and the subjects were asked not to eat or drink anything for at least 1 h before the test. They arrived 15 min before the start of the session in order to acclimatize to the environmental conditions, in particular the temperature of the room (kept constant at 23° C.) and to be resting seated on a comfortable chair. The 16 solutions for testing and two additional samples of water containing solely Evian water, added to the references, were presented monadically following a test order determined from a “balanced incomplete block design”. During a session, 9 samples out of 18 were presented to minimize sensory fatigue. In addition, a sample of Evian was always tested as a “blank” sample in order to avoid the first-order effect (Lawless, H. T. & Heymann, H., 2010, Sensory evaluation of food: Principles and practices. Springer, New York) and was excluded from the analysis. A light signal was sent to give the instruction to test the sample. When the disturbance to the nervous system returned to its baseline level (after approximately 1 min), a second light signal indicated to the subjects that they should complete a questionnaire regarding the stimulus tested previously. The first part of the questionnaire was linked to the identification of the taste (i.e. determining the quality of the taste); the subjects had to choose between five labels: sweet, salty, sour, bitter or neutral. They then had to assign a taste intensity score on an 11-point scale (from 0 “not intense” (i.e. taste of Evian only) to 10 “very intense”) and finally to give a hedonic score on an 11-point scale (from 0 “very unpleasant” to 10 “very pleasant”, 5 being “neutral”).
(§5) This procedure was repeated for each of the 9 stimuli. A session lasted approximately 45 min including a debriefing at the end of the test to ensure understanding of the sense of the signal variations. The experiment was repeated 12 times per subject, meaning that the data are composed of 6 data sets per subject and per product and 12 data sets for the Evian product per subject. Thus, the database consists of 432 samples.
(§6) The effect of the taste on the hedonic and intensity scores was analyzed by an analysis of variance (ANOVA) including the product effect, the subject effect and the product-subject interaction. The subject effect was fixed because there were only 4 subjects and the results could only be applied to a particular schema. The differences were considered to be significant at a level of 0.05.

[2] = cited from earlier work
[3] = tested on: four non-smoking volunteers (2 men and 2 women); test: Taste intensity score, 11-point scale (0 not intense to 10 very intense); assay type: in vivo, human; details: concentration 4; averaged over 4 subjects, 6 repetitions each
Description: as §1, §2, §3, §4, §5, §6

[4] = tested on: four non-smoking volunteers (2 men and 2 women); test: Taste identification questionnaire, trained panel (count of 6 repetitions per subject in which the stimulus was given each taste label; level of recognition %); assay type: in vivo, human; details: for Level of Recognition %: Bitter / Level of Recognition %: Neutral / Level of Recognition %: Salty / Level of Recognition %: Sour / Level of Recognition %: Sweet: four subjects
Description: as §1, §2, §3, §4, §5

OC[C@H]1O[C@@](CO)(O[C@H]2O[C@H](CO)[C@@H](O)[C@H](O)[C@H]2O)[C@@H](O)[C@@H]1O [Sucrose, sucrose]
hedonic score [1]: 7.0±2.6
detection threshold concentration of the basic taste ([2]; literature (Purves 2005; Robinson 2005)): approximately 20 mmol·l^−1
detection threshold ([2]; representative compound of a primary taste): 6.846 g/L
intensity score [3]: 8.3±0.9
Individual recognition score: Bitter ([4]; Subject 1, dilution 1): 0
Individual recognition score: Neutral ([4]; Subject 1, dilution 1): 0
Individual recognition score: Salty ([4]; Subject 1, dilution 1): 0
Individual recognition score: Sour ([4]; Subject 1, dilution 1): 0
Individual recognition score: Sweet ([4]; Subject 1, dilution 1): 6
Individual recognition score: Bitter ([4]; Subject 1, dilution 2): 0
Individual recognition score: Neutral ([4]; Subject 1, dilution 2): 0
Individual recognition score: Salty ([4]; Subject 1, dilution 2): 0
Individual recognition score: Sour ([4]; Subject 1, dilution 2): 0
Individual recognition score: Sweet ([4]; Subject 1, dilution 2): 6
Individual recognition score: Bitter ([4]; Subject 1, dilution 3): 0
Individual recognition score: Neutral ([4]; Subject 1, dilution 3): 0
Individual recognition score: Salty ([4]; Subject 1, dilution 3): 0
Individual recognition score: Sour ([4]; Subject 1, dilution 3): 0
Individual recognition score: Sweet ([4]; Subject 1, dilution 3): 6
Individual recognition score: Bitter ([4]; Subject 1, dilution 4): 0
Individual recognition score: Neutral ([4]; Subject 1, dilution 4): 0
Individual recognition score: Salty ([4]; Subject 1, dilution 4): 0
Individual recognition score: Sour ([4]; Subject 1, dilution 4): 0
Individual recognition score: Sweet ([4]; Subject 1, dilution 4): 6
Individual recognition score: Bitter ([4]; Subject 2, dilution 1): 0
Individual recognition score: Neutral ([4]; Subject 2, dilution 1): 0
Individual recognition score: Salty ([4]; Subject 2, dilution 1): 0
Individual recognition score: Sour ([4]; Subject 2, dilution 1): 0
Individual recognition score: Sweet ([4]; Subject 2, dilution 1): 6
Individual recognition score: Bitter ([4]; Subject 2, dilution 2): 0
Individual recognition score: Neutral ([4]; Subject 2, dilution 2): 0
Individual recognition score: Salty ([4]; Subject 2, dilution 2): 0
Individual recognition score: Sour ([4]; Subject 2, dilution 2): 0
Individual recognition score: Sweet ([4]; Subject 2, dilution 2): 6
Individual recognition score: Bitter ([4]; Subject 2, dilution 3): 0
Individual recognition score: Neutral ([4]; Subject 2, dilution 3): 0
Individual recognition score: Salty ([4]; Subject 2, dilution 3): 0
Individual recognition score: Sour ([4]; Subject 2, dilution 3): 0
Individual recognition score: Sweet ([4]; Subject 2, dilution 3): 6
Individual recognition score: Bitter ([4]; Subject 2, dilution 4): 0
Individual recognition score: Neutral ([4]; Subject 2, dilution 4): 0
Individual recognition score: Salty ([4]; Subject 2, dilution 4): 0
Individual recognition score: Sour ([4]; Subject 2, dilution 4): 0
Individual recognition score: Sweet ([4]; Subject 2, dilution 4): 6
Individual recognition score: Bitter ([4]; Subject 3, dilution 1): 0
Individual recognition score: Neutral ([4]; Subject 3, dilution 1): 3
Individual recognition score: Salty ([4]; Subject 3, dilution 1): 0
Individual recognition score: Sour ([4]; Subject 3, dilution 1): 0
Individual recognition score: Sweet ([4]; Subject 3, dilution 1): 3
Individual recognition score: Bitter ([4]; Subject 3, dilution 2): 0
Individual recognition score: Neutral ([4]; Subject 3, dilution 2): 0
Individual recognition score: Salty ([4]; Subject 3, dilution 2): 0
Individual recognition score: Sour ([4]; Subject 3, dilution 2): 0
Individual recognition score: Sweet ([4]; Subject 3, dilution 2): 6
Individual recognition score: Bitter ([4]; Subject 3, dilution 3): 0
Individual recognition score: Neutral ([4]; Subject 3, dilution 3): 0
Individual recognition score: Salty ([4]; Subject 3, dilution 3): 0
Individual recognition score: Sour ([4]; Subject 3, dilution 3): 0
Individual recognition score: Sweet ([4]; Subject 3, dilution 3): 6
Individual recognition score: Bitter ([4]; Subject 3, dilution 4): 0
Individual recognition score: Neutral ([4]; Subject 3, dilution 4): 0
Individual recognition score: Salty ([4]; Subject 3, dilution 4): 0
Individual recognition score: Sour ([4]; Subject 3, dilution 4): 0
Individual recognition score: Sweet ([4]; Subject 3, dilution 4): 6
Individual recognition score: Bitter ([4]; Subject 4, dilution 1): 0
Individual recognition score: Neutral ([4]; Subject 4, dilution 1): 0
Individual recognition score: Salty ([4]; Subject 4, dilution 1): 0
Individual recognition score: Sour ([4]; Subject 4, dilution 1): 0
Individual recognition score: Sweet ([4]; Subject 4, dilution 1): 6
Individual recognition score: Bitter ([4]; Subject 4, dilution 2): 0
Individual recognition score: Neutral ([4]; Subject 4, dilution 2): 0
Individual recognition score: Salty ([4]; Subject 4, dilution 2): 0
Individual recognition score: Sour ([4]; Subject 4, dilution 2): 0
Individual recognition score: Sweet ([4]; Subject 4, dilution 2): 6
Individual recognition score: Bitter ([4]; Subject 4, dilution 3): 0
Individual recognition score: Neutral ([4]; Subject 4, dilution 3): 0
Individual recognition score: Salty ([4]; Subject 4, dilution 3): 0
Individual recognition score: Sour ([4]; Subject 4, dilution 3): 0
Individual recognition score: Sweet ([4]; Subject 4, dilution 3): 6
Individual recognition score: Bitter ([4]; Subject 4, dilution 4): 0
Individual recognition score: Neutral ([4]; Subject 4, dilution 4): 0
Individual recognition score: Salty ([4]; Subject 4, dilution 4): 0
Individual recognition score: Sour ([4]; Subject 4, dilution 4): 0
Individual recognition score: Sweet ([4]; Subject 4, dilution 4): 6
Level of Recognition %: Bitter ([4]; dilution 1): 0%
Level of Recognition %: Neutral ([4]; dilution 1): 12%
Level of Recognition %: Salty ([4]; dilution 1): 0%
Level of Recognition %: Sour ([4]; dilution 1): 0%
Level of Recognition %: Sweet ([4]; dilution 1): 88%
Level of Recognition %: Bitter ([4]; dilution 2): 0%
Level of Recognition %: Neutral ([4]; dilution 2): 0%
Level of Recognition %: Salty ([4]; dilution 2): 0%
Level of Recognition %: Sour ([4]; dilution 2): 0%
Level of Recognition %: Sweet ([4]; dilution 2): 100%
Level of Recognition %: Bitter ([4]; dilution 3): 0%
Level of Recognition %: Neutral ([4]; dilution 3): 0%
Level of Recognition %: Salty ([4]; dilution 3): 0%
Level of Recognition %: Sour ([4]; dilution 3): 0%
Level of Recognition %: Sweet ([4]; dilution 3): 100%
Level of Recognition %: Bitter ([4]; dilution 4): 0%
Level of Recognition %: Neutral ([4]; dilution 4): 0%
Level of Recognition %: Salty ([4]; dilution 4): 0%
Level of Recognition %: Sour ([4]; dilution 4): 0%
Level of Recognition %: Sweet ([4]; dilution 4): 100%
